Data from ChEMBL document CHEMBL1123699, “Selective cytotoxicity of a system L specific amino acid nitrogen mustard” (J Med Chem, 1987).

Legend:
L1210 [1] = experiment: Inhibitory activity against murine leukemia cells (L1210) was determined; format: functional, cell-based, Mus musculus
CFU-C = experiment: Lethal dose was determined for […] activity against […]; format: toxicity, cell-based; settings: mouse
L1210 [2] = experiment: Lethal dose was determined for […] activity against murine leukemia cells (L1210); format: toxicity, cell-based; settings: mouse
L1210 [3] = experiment: Inhibitory activity against leucine-preferring transport system (system L) was determined in murine leukemia L1210 cell lines; format: functional, cell-based, Mus musculus
[4] = rat
[5] = Therapeutic index is the ratio of LD90 of CFU-C to LD90 of L1210 cell lines; format: cell-based; settings: mouse, CFU-C and L1210 cells

SMILES: N[C@@H](Cc1ccc(N(CCCl)CCCl)cc1)C(=O)O [MELPHALAN]
- Ki (L1210 [1]): 112 µM
- LD90 (CFU-C): 14 µM
- LD90 (L1210 [2]): 35 µM

SMILES: NC1(C(=O)O)CCc2ccccc2C1 (stereo not given)
- Ki (L1210 [3]): 5 µM

SMILES: NC1(C(=O)O)CCc2ccc(N(CCCl)CCCl)cc2C1 (stereo not given)
- Ki (L1210 [1]): 0.22 µM
- LD90 (CFU-C): 26.5 µM
- half-life [4]: 40 min
- selectivity ratio [5]: 0.9
- LD90 (L1210 [2]): 23.8 µM

SMILES: NC1(C(=O)O)CCc2c(cccc2N(CCCl)CCCl)C1 (stereo not given)
- Ki (L1210 [3]): 15.2 µM
